pIC50: −log10 of the molar value.
Columns and labels:
Fms = biological target: T1, Fms (Homo sapiens, UniProt P07333); assay: Fms biochemical assay (AlphaScreen or 33P-ATP); conditions: under the test conditions employed; read-out: IC50 toward kinase Fms
T1 construct: purchased Upstate Biotech 14-551
Source text: Each sample was at 5% DMSO.

HGK = HGK (Homo sapiens, UniProt O95819); assay: HGK (MAP4K4) biochemical assay (AlphaScreen); conditions: under the test conditions employed; read-out: IC50 toward kinase HGK
Experimental: Substrate was 10 nM biotin-ERM (T567/T564/T558, Cell Signaling, Inc., cat#1344). MAP4K4 kinase was at 0.5 ng per sample. After incubation of the kinase reaction for 40 min at room temperature, 5 μl of donor beads and protein A acceptor beads (Perkin Elmer Life Science, cat#67606017) at final concentration 1 μg/ml in stop buffer (20 mM Tris, pH 7.4, 200 mM Nacl, 100 mM EDTA, 0.03% BSA) was added, along with Phospho-ERM Antibody (T567/T564/T558, Cell Signaling, Inc., cat#3141) at 1:1000 dilution. […] Phosphorylated substrate results in binding of the antibody which binds to protein A acceptor bead and association of the donor and acceptor beads is such that the signal correlates with kinase activity.

Kit = biological target: T2, Kit (Homo sapiens, UniProt P10721); assay: c-kit biochemical assay (AlphaScreen or 33P-ATP); conditions: under the test conditions employed; read-out: IC50 toward kinase Kit
T2 construct: P1332.N6 BI PTP KIT M552-K948-X COD; made in house; host or cells: E. coli BL21(DE3)RIL, co-expressed with PTP1B
Experimental: C-kit kinase was at 1 ng per sample.
The c-kit enzyme used in the above assay was either obtained from Cell Signaling Technology (Cat. #7754) or was prepared as follows: A plasmid encoding kit (DNA and encoded protein sequences shown below) was engineered using common polymerase chain reaction (PCR) methods. Complementary DNA cloned from various human tissues were purchased from Invitrogen, and these were used as substrates in the PCR reactions. Specific custom synthetic oligonucleotide primers were designed to initiate the PCR product, and also to provide the appropriate restriction enzyme cleavage sites for ligation with the plasmids. The entire sequence encoding the enzyme was made through a gene synthesis procedure, using custom synthetic oligonucleotides covering the entire coding sequence (Invitrogen, see below).

TrkA = biological target: T3, TrkA (Homo sapiens, UniProt P04629); assay: TrkA biochemical assay (AlphaScreen); conditions: under the test conditions employed; read-out: IC50 toward kinase TrkA
T3 construct: purchased Upstate Biotech 14-571
Experimental: Compounds tested were dissolved in DMSO (1 μL) and added to a white 384-well plate (Costar #3705). […] Each sample was at 5% DMSO. The plate was then incubated for 40 minutes at room temperature.

Measured: pIC50

Chain of HGK (O95819 whole entry): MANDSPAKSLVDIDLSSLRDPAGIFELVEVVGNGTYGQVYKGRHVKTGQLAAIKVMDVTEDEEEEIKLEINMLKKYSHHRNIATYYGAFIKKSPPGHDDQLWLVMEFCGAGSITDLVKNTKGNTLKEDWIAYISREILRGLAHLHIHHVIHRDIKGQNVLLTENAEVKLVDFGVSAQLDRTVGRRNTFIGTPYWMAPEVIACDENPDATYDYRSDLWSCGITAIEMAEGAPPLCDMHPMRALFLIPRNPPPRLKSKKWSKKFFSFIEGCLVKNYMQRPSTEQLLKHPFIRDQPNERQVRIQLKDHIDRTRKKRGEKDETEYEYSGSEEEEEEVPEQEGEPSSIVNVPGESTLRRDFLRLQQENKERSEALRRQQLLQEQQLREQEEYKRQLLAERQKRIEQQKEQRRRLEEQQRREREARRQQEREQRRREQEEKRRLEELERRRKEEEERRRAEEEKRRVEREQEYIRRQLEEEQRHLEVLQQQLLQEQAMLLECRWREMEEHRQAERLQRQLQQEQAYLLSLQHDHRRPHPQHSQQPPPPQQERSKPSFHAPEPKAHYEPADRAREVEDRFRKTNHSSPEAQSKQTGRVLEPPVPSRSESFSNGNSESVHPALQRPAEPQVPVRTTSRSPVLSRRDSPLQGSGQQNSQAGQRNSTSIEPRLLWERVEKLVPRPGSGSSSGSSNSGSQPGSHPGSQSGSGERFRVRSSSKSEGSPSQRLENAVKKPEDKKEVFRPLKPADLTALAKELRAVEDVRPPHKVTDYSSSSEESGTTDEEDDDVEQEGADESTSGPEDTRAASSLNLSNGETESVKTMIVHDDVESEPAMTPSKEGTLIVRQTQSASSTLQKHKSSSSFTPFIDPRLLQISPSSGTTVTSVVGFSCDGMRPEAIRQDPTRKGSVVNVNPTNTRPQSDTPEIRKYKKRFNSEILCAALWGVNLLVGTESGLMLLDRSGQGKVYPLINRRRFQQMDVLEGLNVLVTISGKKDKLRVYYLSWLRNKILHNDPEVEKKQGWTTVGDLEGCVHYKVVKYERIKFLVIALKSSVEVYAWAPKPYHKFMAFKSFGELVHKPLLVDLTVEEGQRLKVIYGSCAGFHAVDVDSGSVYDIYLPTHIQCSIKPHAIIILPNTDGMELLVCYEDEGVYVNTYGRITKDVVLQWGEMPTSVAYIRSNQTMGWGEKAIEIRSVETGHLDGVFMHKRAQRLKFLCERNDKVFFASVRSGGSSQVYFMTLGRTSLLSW
T2 sequence (P10721 552-948): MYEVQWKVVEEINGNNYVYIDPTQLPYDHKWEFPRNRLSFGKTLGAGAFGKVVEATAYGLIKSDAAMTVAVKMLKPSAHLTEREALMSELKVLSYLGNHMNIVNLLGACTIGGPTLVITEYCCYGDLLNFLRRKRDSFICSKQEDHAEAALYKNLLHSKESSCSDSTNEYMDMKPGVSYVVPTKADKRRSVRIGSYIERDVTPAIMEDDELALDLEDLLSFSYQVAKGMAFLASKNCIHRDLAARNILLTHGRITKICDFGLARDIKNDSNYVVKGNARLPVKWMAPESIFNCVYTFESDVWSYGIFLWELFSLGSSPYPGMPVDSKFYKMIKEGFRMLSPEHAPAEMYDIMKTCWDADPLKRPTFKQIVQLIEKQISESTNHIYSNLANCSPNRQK
T1 sequence (P07333 20-972): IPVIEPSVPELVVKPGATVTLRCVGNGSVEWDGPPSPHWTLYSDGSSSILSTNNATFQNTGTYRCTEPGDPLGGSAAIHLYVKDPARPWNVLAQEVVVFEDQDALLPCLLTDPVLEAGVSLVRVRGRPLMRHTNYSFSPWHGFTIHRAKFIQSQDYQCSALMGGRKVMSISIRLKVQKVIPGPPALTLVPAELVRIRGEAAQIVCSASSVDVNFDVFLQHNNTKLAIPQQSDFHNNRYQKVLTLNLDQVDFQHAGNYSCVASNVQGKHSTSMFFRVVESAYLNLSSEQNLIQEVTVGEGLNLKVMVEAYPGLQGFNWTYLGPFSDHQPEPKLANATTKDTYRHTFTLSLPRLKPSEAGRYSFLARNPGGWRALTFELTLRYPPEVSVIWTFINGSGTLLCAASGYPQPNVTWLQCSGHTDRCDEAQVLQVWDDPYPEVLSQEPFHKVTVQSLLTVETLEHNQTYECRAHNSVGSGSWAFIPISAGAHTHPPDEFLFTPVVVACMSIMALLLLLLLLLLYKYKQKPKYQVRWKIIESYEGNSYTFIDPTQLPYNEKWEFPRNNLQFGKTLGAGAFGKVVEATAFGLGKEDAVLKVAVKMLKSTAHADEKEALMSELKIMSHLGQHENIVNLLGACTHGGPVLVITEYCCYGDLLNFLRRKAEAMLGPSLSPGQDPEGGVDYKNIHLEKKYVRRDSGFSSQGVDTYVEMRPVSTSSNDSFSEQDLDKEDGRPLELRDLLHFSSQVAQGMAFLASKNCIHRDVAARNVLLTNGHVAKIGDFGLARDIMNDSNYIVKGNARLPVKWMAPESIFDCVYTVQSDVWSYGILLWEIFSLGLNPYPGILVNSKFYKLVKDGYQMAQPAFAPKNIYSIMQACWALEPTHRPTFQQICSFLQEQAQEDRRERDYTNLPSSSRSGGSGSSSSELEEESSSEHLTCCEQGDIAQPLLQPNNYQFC
T3 sequence (P04629 33-796): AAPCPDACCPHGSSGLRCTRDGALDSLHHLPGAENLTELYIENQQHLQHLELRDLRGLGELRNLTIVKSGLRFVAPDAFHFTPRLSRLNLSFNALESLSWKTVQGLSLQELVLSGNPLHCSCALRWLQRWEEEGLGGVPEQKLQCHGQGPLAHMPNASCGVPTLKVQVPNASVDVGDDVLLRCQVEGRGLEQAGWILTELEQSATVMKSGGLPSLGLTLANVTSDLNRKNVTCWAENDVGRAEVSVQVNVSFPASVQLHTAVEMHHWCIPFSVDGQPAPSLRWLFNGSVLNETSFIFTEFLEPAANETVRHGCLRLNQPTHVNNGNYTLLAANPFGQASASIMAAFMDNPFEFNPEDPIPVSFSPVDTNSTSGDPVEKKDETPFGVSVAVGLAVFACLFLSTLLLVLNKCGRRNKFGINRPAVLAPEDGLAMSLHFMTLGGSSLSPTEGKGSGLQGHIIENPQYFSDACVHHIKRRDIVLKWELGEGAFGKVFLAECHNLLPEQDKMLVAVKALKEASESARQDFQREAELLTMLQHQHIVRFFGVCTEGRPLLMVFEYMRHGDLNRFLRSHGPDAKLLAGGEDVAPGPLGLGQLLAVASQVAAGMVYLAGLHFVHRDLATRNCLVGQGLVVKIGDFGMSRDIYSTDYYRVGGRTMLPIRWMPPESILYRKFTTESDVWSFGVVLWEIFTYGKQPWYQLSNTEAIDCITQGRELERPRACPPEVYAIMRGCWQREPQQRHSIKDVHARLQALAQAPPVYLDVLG

COc1cc(Cc2c[nH]c3ncc(Cl)cc23)c(F)cc1OCc1nc2ccccc2n1C [P-2106, 2-[4-(5-Chloro-1H-pyrrolo[2,3-b]pyridin-3-ylmethyl)-5-fluoro-2-methoxy-phenoxymethyl]-1-methyl-1H-benzoimidazole]
≥ 5.00: all assays above

COc1cc(Cc2c[nH]c3ncc(Cl)cc23)c(F)cc1OC(C)c1nc2ccccc2[nH]1 (stereo not shown) [P-2110, 2-{1-[4-(5-Chloro-1H-pyrrolo[2,3-b]pyridin-3-ylmethyl)-5-fluoro-2-methoxy-phenoxy]-ethyl}-1H-benzoimidazole]
≥ 5.00: all assays above

COc1cc(Cc2c[nH]c3ncc(Cl)cc23)c(F)cc1OCc1nc2cc(Cl)ccc2[nH]1 [P-2111, 6-Chloro-2-[4-(5-chloro-1H-pyrrolo[2,3-b]pyridin-3-ylmethyl)-5-fluoro-2-methoxy-phenoxymethyl]-1H-benzoimidazole]
≥ 5.00: all assays above

COc1cc(Cc2c[nH]c3ncccc23)c(F)cc1OCc1nc2ccc(Cl)cc2[nH]1 [P-2112, 6-Chloro-2-[5-fluoro-2-methoxy-4-(1H-pyrrolo[2,3-b]pyridin-3-ylmethyl)-phenoxymethyl]-1H-benzoimidazole]
≥ 5.00: all assays above

COc1cc(Cc2c[nH]c3ncc(Cl)cc23)c(F)cc1OCc1nc2cc(Cl)c(Cl)cc2[nH]1 [P-2172, 5,6-Dichloro-2-[4-(5-chloro-1H-pyrrolo[2,3-b]pyridin-3-ylmethyl)-5-fluoro-2-methoxy-phenoxymethyl]-1H-benzoimidazole]
≥ 5.00: all assays above

COC(=O)c1cnc2[nH]cc(Cc3cc(OC)c(OCc4nc5ccccc5[nH]4)cc3F)c2c1 [P-2174, 3-[4-(1H-Benzimidazol-2-ylmethoxy)-2-fluoro-5-methoxy-benzyl]-1H-pyrrolo[2,3-b]pyridine-5-carboxylic acid methyl ester]
≥ 5.00: all assays above

COc1cc(Cc2c[nH]c3ncc(C(=O)O)cc23)c(F)cc1OCc1nc2ccccc2[nH]1 [P-2175, 3-[4-(1H-Benzoimidazol-2-ylmethoxy)-2-fluoro-5-methoxy-benzyl]-1H-pyrrolo[2,3-b]pyridine-5-carboxylic acid]
≥ 5.00: Fms | HGK | TrkA

COc1cc(Cc2c[nH]c3ncc(Cl)cc23)c(F)cc1OCc1nc2cc(C(F)(F)F)ccc2[nH]1 [P-2178, 2-[4-(5-Chloro-1H-pyrrolo[2,3-b]pyridin-3-ylmethyl)-5-fluoro-2-methoxy-phenoxymethyl]-5-trifluoromethyl-1H-benzoimidazole]
≥ 5.00: all assays above

COc1ccc2[nH]c(COc3cc(F)c(Cc4c[nH]c5ncc(Cl)cc45)cc3OC)nc2c1 [P-2182, 2-[4-(5-Chloro-1H-pyrrolo[2,3-b]pyridin-3-ylmethyl)-5-fluoro-2-methoxy-phenoxymethyl]-5-methoxy-1H-benzoimidazole]
≥ 5.00: Fms | HGK | TrkA

From patent US7872018B2, “Compounds and methods for kinase modulation, and indications therefor” (Plexxikon, Inc., priority 2006, dated 2011)
